Experimental data reported in paper PMC9366597 (RSC Advances, 2022).
Like-named read-outs stand apart in the source and are kept apart here.

Assays:
[1] = PAMPA-BBB permeation assay; details: for Prediction (PAMPA-BBB) (CNS+, CNS−): class from Pe; for Papp at 20 h: PAMPA, pH 7.4
eqBChE = eqBChE (Equus caballus, UniProt P81908); assay: BChE inhibition, modified Ellman's method; type: biochemical, Equine
hMAO-A = target: T1, hMAO-A (Homo sapiens, UniProt P21397); assay: MAO-A inhibition, fluorometric method; type: biochemical
T1 sequence (P21397 1-527): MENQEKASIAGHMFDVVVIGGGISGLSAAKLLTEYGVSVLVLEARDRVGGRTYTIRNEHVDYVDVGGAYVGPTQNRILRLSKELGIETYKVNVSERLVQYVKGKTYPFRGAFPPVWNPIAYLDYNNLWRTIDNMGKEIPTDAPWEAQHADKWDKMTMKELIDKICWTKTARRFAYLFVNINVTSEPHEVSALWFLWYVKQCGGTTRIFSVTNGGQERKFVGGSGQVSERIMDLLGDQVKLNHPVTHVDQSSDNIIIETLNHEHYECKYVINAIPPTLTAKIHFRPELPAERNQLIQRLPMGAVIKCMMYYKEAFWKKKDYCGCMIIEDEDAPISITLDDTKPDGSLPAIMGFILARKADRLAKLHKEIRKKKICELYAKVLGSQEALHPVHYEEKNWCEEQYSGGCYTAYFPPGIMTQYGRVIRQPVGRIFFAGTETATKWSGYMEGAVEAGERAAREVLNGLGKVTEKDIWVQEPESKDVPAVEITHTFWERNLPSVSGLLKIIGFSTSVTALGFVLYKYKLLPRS

5-LOX = target: T2, 5-LOX (Glycine max, UniProt P08170); assay: 5-LOX inhibition assay; type: biochemical, soybean
T2 sequence (P08170 1-839): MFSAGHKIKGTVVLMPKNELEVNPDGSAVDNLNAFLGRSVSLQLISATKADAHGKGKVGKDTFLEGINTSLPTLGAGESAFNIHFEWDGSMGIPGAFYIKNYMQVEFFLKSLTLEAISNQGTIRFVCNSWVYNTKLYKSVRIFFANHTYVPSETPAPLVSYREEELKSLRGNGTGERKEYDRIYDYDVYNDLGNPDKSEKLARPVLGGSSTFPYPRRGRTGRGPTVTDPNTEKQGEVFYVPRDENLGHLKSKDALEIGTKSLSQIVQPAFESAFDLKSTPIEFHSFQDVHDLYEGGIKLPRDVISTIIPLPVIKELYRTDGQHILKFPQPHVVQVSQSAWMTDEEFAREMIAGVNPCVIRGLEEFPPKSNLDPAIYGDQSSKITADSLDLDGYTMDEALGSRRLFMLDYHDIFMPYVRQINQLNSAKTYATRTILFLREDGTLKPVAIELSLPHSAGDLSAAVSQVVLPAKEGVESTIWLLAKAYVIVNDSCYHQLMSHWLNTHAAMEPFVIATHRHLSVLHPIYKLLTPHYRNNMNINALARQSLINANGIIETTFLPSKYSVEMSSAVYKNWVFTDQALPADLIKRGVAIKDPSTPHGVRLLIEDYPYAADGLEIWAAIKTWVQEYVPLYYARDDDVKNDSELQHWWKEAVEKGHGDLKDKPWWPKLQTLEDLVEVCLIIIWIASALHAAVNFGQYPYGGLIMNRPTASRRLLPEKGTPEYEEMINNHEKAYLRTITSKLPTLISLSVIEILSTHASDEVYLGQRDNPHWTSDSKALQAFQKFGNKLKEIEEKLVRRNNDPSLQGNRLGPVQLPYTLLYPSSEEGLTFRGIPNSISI

hMAO-B = target: T3, hMAO-B (Homo sapiens, UniProt P27338); assay: MAO-B inhibition, fluorometric method; type: biochemical; details: for SI (IC50 hMAO-A/IC50 hMAO-B): selectivity index toward hMAO-B
T3 sequence (P27338 1-520): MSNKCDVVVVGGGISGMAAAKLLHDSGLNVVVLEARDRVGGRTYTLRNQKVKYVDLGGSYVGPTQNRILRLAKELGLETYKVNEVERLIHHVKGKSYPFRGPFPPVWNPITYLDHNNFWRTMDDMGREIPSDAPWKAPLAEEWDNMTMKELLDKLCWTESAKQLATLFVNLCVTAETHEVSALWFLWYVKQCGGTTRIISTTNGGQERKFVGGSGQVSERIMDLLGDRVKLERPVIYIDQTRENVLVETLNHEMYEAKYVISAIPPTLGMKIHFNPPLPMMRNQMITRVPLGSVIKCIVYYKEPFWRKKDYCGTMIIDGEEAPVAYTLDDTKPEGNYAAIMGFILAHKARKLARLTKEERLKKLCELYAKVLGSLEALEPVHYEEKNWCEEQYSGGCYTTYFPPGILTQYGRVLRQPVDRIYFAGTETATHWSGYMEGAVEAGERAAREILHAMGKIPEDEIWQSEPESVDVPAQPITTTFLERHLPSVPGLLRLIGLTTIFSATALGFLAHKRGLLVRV

COX-2 = target: T4, COX-2 (Homo sapiens, UniProt P35354); assay: biochemical; type: biochemical
T4 sequence (P35354 18-604): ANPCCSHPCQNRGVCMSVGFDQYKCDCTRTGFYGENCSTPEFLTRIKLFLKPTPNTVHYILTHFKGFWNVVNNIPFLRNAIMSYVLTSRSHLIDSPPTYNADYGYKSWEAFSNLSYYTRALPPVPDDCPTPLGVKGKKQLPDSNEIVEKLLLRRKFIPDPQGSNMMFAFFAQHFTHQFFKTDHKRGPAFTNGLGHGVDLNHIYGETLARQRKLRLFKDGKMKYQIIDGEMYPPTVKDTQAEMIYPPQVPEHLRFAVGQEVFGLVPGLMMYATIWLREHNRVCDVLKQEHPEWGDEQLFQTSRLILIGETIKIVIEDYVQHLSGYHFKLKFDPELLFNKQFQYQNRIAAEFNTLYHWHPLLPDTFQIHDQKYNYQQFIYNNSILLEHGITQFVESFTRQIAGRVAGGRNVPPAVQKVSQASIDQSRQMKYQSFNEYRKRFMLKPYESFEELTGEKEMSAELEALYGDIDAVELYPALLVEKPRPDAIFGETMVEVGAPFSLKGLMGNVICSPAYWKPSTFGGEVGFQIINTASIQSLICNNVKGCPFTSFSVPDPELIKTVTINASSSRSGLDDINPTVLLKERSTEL

eeAChE = eeAChE (Electrophorus electricus, UniProt O42275); assay: AChE inhibition, modified Ellman's method; type: biochemical, Electrophorous electricus; details: for SI (IC50 eqBChE/IC50 eeAChE): selectivity index toward eeAChE
eeAChE, sequence (O42275 24-633): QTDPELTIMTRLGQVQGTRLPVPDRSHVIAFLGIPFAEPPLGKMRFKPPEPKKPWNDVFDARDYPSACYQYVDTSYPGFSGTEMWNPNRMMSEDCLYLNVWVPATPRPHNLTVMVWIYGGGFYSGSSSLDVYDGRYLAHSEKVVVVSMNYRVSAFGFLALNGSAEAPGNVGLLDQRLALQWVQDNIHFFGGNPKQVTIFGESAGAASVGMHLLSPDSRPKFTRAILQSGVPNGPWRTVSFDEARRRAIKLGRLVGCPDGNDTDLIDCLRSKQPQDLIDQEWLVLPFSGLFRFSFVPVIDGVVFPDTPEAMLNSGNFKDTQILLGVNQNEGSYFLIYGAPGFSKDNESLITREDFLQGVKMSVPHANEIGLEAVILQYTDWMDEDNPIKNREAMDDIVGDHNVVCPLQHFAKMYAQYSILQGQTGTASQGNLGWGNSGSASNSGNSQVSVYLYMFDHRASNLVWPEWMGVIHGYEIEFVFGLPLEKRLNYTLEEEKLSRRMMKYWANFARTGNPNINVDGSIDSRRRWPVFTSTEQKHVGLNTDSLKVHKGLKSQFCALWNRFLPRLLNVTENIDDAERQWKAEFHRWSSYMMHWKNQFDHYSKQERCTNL

[2] = In vivo acute toxicity study; details: doses ranging from 50 to 2000 mg kg^−1 body weight
[3] = test system: neuroblastoma SH-SY5Y cells; assay: MTT assay for neurotoxicity; type: cell-based; details: 1, 10, 20, 40 and 80 μM, incubation for 48 hours

eqBChE, sequence (P81908 whole entry): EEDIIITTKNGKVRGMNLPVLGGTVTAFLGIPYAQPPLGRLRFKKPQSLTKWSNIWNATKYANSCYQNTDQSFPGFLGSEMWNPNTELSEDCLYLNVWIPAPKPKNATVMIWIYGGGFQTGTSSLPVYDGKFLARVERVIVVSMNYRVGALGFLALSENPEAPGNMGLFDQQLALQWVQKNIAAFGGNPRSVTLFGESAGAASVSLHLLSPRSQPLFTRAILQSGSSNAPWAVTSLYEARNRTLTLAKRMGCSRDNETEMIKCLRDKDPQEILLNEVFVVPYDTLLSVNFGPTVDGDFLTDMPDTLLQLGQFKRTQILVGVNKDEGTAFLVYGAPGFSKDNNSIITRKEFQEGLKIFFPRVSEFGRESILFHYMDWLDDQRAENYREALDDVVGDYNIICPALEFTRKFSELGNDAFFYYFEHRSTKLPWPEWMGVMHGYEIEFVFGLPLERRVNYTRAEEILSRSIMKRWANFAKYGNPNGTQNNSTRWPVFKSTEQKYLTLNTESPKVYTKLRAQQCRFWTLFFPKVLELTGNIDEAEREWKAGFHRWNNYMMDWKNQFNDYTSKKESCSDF

## Cc1nnc2n1-c1ccc(Cl)cc1C(c1ccccc1)=NC2 [Alprazolam, reference compound]
[1]
  Prediction (PAMPA-BBB) (CNS+, CNS−): CNS+ (‘CNS+’ (prediction of high BBB permeation); Pe (10^−6 cm s^−1) > 4.39)

## Sc1nnc(Cc2ccccc2Nc2c(Cl)cccc2Cl)n1-c1ccc(Cl)c(Cl)c1 [Compound 12, 5-(2-(2,6-dichlorophenylamino)benzyl)-4-(3,4 dichlorophenyl)-4H-1,2,4-triazole-3-thiol]
eqBChE
  IC50: 56.4 ± 1.28 µM
hMAO-A
  IC50: 11.3 ± 1.01 µM
5-LOX
  IC50: 75.5 ± 1.57 µM
hMAO-B
  IC50: 13.1 ± 1.22 µM
  SI (IC50 hMAO-A/IC50 hMAO-B): 0.8
COX-2
  IC50: 0.69 ± 0.13 µM
eeAChE
  IC50: 2.58 ± 0.41 µM
  SI (IC50 eqBChE/IC50 eeAChE): 21.8

## NS(=O)(=O)c1ccc(NCSc2nnc(Cc3ccccc3Nc3c(Cl)cccc3Cl)n2-c2ccc(Cl)c(Cl)c2)cc1 [Compound 15, 4-((5-(2-(2,6-dichlorophenylamino)benzyl)-4-(3,4-dichlorophenyl)-4H-1,2,4-triazol-3-ylthio)methylamino)benzenesulfonamide]
eqBChE
  IC50: 2.99 ± 0.33 µM
hMAO-A
  IC50: 1.21 ± 0.07 µM
[1]
  Papp at 20 h: 6.36 ± 0.3 ×10⁻⁶ cm/s
  Prediction (PAMPA-BBB) (CNS+, CNS−): CNS+ (‘CNS+’ (prediction of high BBB permeation); Pe (10^−6 cm s^−1) > 4.39)
5-LOX
  IC50: 3.42 ± 0.21 µM
[2]
  Acute toxicity outcome: all animals were found alive
hMAO-B
  IC50: 0.89 ± 0.33 µM
  SI (IC50 hMAO-A/IC50 hMAO-B): 1.3
[3]
  Neurotoxicity (cell viability, MTT): low neurotoxicity
COX-2
  IC50: 0.16 ± 0.04 µM
eeAChE
  IC50: 0.11 ± 0.01 µM
  SI (IC50 eqBChE/IC50 eeAChE): 27.2

## COc1ccc(C(=O)CC2CC(=O)N(CCCSc3nnc(Cc4ccccc4Nc4c(Cl)cccc4Cl)n3-c3ccc(Cl)c(Cl)c3)C2=O)cc1 (stereo not shown) [Compound 31, 1-(3-((4-(3,4-Dichlorophenyl)-5-(2-((2,6-dichlorophenyl)amino)benzyl)-4H-1,2,4-triazol-3-yl)thio)propyl)-3-(2-(4-methoxyphenyl)-2-oxoethyl)pyrrolidine-2,5-dione]
eqBChE
  IC50: 48.1 ± 1.51 µM
hMAO-A
  IC50: 4.63 ± 0.31 µM
5-LOX
  IC50: 51.3 ± 1.37 µM
[2]
  Acute toxicity outcome: all animals were found alive
hMAO-B
  IC50: 0.024 ± 0.001 µM
  SI (IC50 hMAO-A/IC50 hMAO-B): 193
eeAChE
  IC50: 0.08 ± 0.01 µM
  SI (IC50 eqBChE/IC50 eeAChE): 601.2

## O=C(CC1CC(=O)N(CCCSc2nnc(Cc3ccccc3Nc3c(Cl)cccc3Cl)n2-c2ccc(Cl)c(Cl)c2)C1=O)c1ccccc1 (stereo not shown) [Compound 32, 1-(3-((4-(3,4-Dichlorophenyl)-5-(2-((2,6-dichlorophenyl)amino)benzyl)-4H-1,2,4-triazol-3-yl)thio)propyl)-3-(2-oxo-2-phenylethyl)pyrrolidine-2,5-dione]
eqBChE
  IC50: 3.39 ± 0.83 µM
hMAO-A
  IC50: 6.48 ± 0.39 µM
5-LOX
  IC50: 48.3 ± 1.42 µM
hMAO-B
  IC50: 0.106 ± 0.004 µM
  SI (IC50 hMAO-A/IC50 hMAO-B): 61.1
eeAChE
  IC50: 0.39 ± 0.08 µM
  SI (IC50 eqBChE/IC50 eeAChE): 8.7

## NS(=O)(=O)c1ccc(N2N=C(c3ccc(NC(=O)Cc4ccccc4Nc4c(Cl)cccc4Cl)cc3)CC2c2ccc(Cl)cc2)cc1 (stereo not shown) [Compound 39, N-{4-[5-(4-chlorophenyl)-1-(4-sulfamoylphenyl)-4,5-dihydro-1H-pyrazol-3-yl]phenyl}-2-{2-[(2,6-dichlorophenyl)amino]phenyl}acetamide]
eqBChE
  IC50: 0.91 ± 0.16 µM
hMAO-A
  IC50: 0.61 ± 0.08 µM
[1]
  Papp at 20 h: 7.55 ± 0.14 ×10⁻⁶ cm/s
  Prediction (PAMPA-BBB) (CNS+, CNS−): CNS+ (‘CNS+’ (prediction of high BBB permeation); Pe (10^−6 cm s^−1) > 4.39)
5-LOX
  IC50: 0.98 ± 0.01 µM
[2]
  Acute toxicity outcome: all animals were found alive
hMAO-B
  IC50: 0.01 ± 0.001 µM
  SI (IC50 hMAO-A/IC50 hMAO-B): 61
[3]
  Neurotoxicity (cell viability, MTT): no neurotoxicity
COX-2
  IC50: 0.6 ± 0.03 µM
eeAChE
  IC50: 0.03 ± 0.01 µM
  SI (IC50 eqBChE/IC50 eeAChE): 30.33

## CCn1cc(C(=O)O)c(=O)c2cc(F)c(N3CCNC(C)C3)c(F)c21 (stereo not shown) [Lomefloxacin, reference compound]
[1]
  Prediction (PAMPA-BBB) (CNS+, CNS−): CNS− (‘CNS−’ (prediction of low BBB permeation); Pe (10^−6 cm s^−1) < 1.78)

## N-(2-((5-(4-(4aH-Phenothiazin-10(10aH)-yl)butylthio)-4-(3,4-dichlorophenyl)-4H-1,2,4-triazol-3-yl)methyl)phenyl)-2,6-dichlorobenzenamine [Compound 33]
eqBChE; read-out: IC50 (μM) ± SEM eqBChE
  IC50: 5.89 ± 1 µM
hMAO-A; read-out: IC50 (μM) ± SEM hMAO-A
  IC50: 8.55 ± 0.26 µM
[1]
  Prediction (PAMPA-BBB) (CNS+, CNS−): CNS+ (‘CNS+’ (prediction of high BBB permeation); Pe (10^−6 cm s^−1) > 4.39)
[1]; pH 7.4, 20 hours, room temperature
  Permeability (PAMPA-BBB) Pe(tested): 9.05 ± 0.20 10^−6 cm s^−1
5-LOX; read-out: IC50 (μM) ± SEM 5-LOX
  IC50: 9.11 ± 0.08 µM
[2]
  Acute toxicity outcome: all animals were found alive
hMAO-B; read-out: IC50 (μM) ± SEM hMAO-B
  IC50: 0.13 ± 0.01 µM
hMAO-B
  SI (IC50 hMAO-A/IC50 hMAO-B): 65.7
[3]
  Neurotoxicity (cell viability, MTT): no neurotoxicity
COX-2; read-out: IC50 (μM) ± SEM COX-2, NA = no activity found in tested concentration
  IC50: 23 ± 0.92 µM
eeAChE; read-out: IC50 (μM) ± SEM eeAChE
  IC50: 0.05 µM
eeAChE
  SI (IC50 eqBChE/IC50 eeAChE): 117.8
